Biological target: human PRMT3 (Homo sapiens, UniProt O60678)
Test: PRMT3 Biochemical Assay (3H-SAM Flashplate, peptide substrate)
Conditions: single experiment or average of multiple experiments

Sequence of human PRMT3 (O60678 with tags, fused parts or gaps): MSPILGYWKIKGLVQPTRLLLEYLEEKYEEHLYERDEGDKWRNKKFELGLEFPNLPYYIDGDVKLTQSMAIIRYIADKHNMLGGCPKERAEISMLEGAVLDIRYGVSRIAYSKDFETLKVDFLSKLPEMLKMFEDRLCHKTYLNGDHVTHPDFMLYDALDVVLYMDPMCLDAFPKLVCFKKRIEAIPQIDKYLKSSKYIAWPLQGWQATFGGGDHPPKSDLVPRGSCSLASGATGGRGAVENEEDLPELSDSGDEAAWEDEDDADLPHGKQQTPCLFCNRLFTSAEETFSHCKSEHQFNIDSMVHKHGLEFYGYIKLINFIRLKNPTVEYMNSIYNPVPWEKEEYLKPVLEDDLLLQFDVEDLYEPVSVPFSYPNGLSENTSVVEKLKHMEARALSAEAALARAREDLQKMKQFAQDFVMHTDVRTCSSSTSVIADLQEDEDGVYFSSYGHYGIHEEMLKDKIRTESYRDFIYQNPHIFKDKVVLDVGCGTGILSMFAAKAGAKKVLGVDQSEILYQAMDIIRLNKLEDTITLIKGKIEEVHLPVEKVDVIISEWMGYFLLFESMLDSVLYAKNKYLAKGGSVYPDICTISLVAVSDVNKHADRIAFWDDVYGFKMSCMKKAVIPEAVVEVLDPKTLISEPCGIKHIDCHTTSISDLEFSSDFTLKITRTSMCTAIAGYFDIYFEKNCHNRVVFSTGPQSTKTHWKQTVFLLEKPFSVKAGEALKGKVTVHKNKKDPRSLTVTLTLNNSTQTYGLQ

CN(CCN)Cc1c[nH]nc1-c1ccc(F)cc1 [Compound 1]
IC50: 2.65 µM

CN(CCN)Cc1cn(C)nc1-c1ccc(F)cc1 [Compound 3]
IC50: 25.5 µM

CCN(CCNC)Cc1c[nH]nc1-c1ccc(F)cc1 [Compound 9]
IC50: 3.16 µM

CNCCN(C)Cc1cnn(C)c1-c1ccc(F)cc1 [Compound 10]
IC50: 13.4 µM

CNCCN(C)Cc1cnn(CC2CCOCC2)c1-c1ccc(F)cc1 [Compound 12]
IC50: > 50 µM

CNCCN(C)Cc1c[nH]nc1-c1cccc(N)c1 [Compound 32]
IC50: 2.76 µM

CNCCN(C)Cc1c[nH]nc1-c1cccc(NC(C)=O)c1 [Compound 42]
IC50: 2.55 µM

CNCCN(C)Cc1c[nH]nc1-c1cccc(C(C)=O)c1 [Compound 44]
IC50: 3.44 µM

CNCCN(C)Cc1c[nH]nc1-c1ccc(-c2ccccc2)cc1 [Compound 47]
IC50: 0.53 µM

CC(C)Oc1ccc(-c2n[nH]cc2CN(C)CCN)cc1 [Compound 67]
IC50: 4.58 µM

CN(CCN)Cc1cn(C2COC2)nc1-c1ccc(F)cc1 [Compound 77]
IC50: 6.29 µM

CN(CCN)Cc1c[nH]nc1-c1ccc(N2CCNCC2)cc1 [Compound 82]
IC50: 1.59 µM

CN(CCN)Cc1c[nH]nc1-c1ccc(Cl)cc1Cl [Compound 86]
IC50: 5.82 µM

Cc1ccc(-c2n[nH]cc2CN(C)CCN)c(C)c1 [Compound 88]
IC50: 8.08 µM

CN(CCN)Cc1c[nH]nc1-c1ccc(F)cc1Cl [Compound 89]
IC50: 9.56 µM

Cc1ccc(-c2n[nH]cc2CN(C)CCN)c(Cl)c1 [Compound 90]
IC50: 6.97 µM

CN(CCN)Cc1c[nH]nc1-c1ccc(C(F)(F)F)cc1 [Compound 92]
IC50: 3.14 µM

CN(CCN)Cc1c[nH]nc1-c1ccc(OC(F)(F)F)cc1 [Compound 93]
IC50: 3.61 µM

CN(CCN)Cc1c[nH]nc1-c1ccc(OC(F)F)cc1 [Compound 94]
IC50: 5.37 µM

CN(CCN)Cc1c[nH]nc1-c1ccc(Cl)cc1 [Compound 95]
IC50: 2.39 µM

CC(C)Oc1ccc(-c2n[nH]cc2CN(C)CCN)cc1Cl [Compound 168]
IC50: 3.91 µM

Source: US9776972B2, “Pyrazole derivatives as arginine methyltransferase inhibitors and uses thereof” (priority 2013, dated 2017)
